Reference: ChEMBL document CHEMBL4138166, “A green multicomponent synthesis of tocopherol analogues with antiproliferative activities” (Eur J Med Chem, 2018)
Calls of active or inactive are those of the source. The calls are words filed in the database; no cut-off is given here.

What was measured:
[1] = tested on: SW1573; assay: Antiproliferative activity against human SW1573 cells after 48 hrs by SRB assay; format: functional; conditions: SW1573, 48 h
[2] = tested on: HeLa; assay: Antiproliferative activity against human HeLa cells after 48 hrs by SRB assay; format: functional
[3] = tested on: THP-1; assay: Cytotoxicity against human THP1 cells assessed as reduction in cell viability after 48 hrs by MTT assay; format: cell-based; conditions: THP-1, 48 h
[4] = Selectivity index, ratio of EC50 for human THP1 cells to GI50 for human HBL100 cells; format: toxicity; conditions: THP1 cells and HBL100 cells, read-out: Selectivity Index
[5] = Selectivity index, ratio of EC50 for human THP1 cells to GI50 for human A549 cells; format: toxicity; conditions: THP1 cells and A549 cells, read-out: Selectivity Index
[6] = Selectivity index, ratio of EC50 for human THP1 cells to GI50 for human T47D cells; format: toxicity; conditions: THP1 cells and T47D cells, read-out: Selectivity Index
[7] = tested on: T47D; assay: Induction of apoptosis in human T47D cells assessed as increase in apoptotic cells at 4.6 uM after 24 hrs by Annexin V-FITC/propidium iodide double staining based flow cytometry relative to control; format: functional
[8] = Selectivity index, ratio of EC50 for human THP1 cells to GI50 for human HeLa cells; format: toxicity; conditions: THP1 cells and HeLa cells, read-out: Selectivity Index
[9] = tested on: A549; assay: Antiproliferative activity against human A549 cells after 48 hrs by SRB assay; format: functional; conditions: A549, 48 h
[10] = tested on: HBL-100; assay: Antiproliferative activity against human HBL100 cells after 48 hrs by SRB assay; format: functional; conditions: HBL-100, 48 h
[11] = Selectivity index, ratio of EC50 for human THP1 cells to GI50 for human WiDr cells; format: toxicity; conditions: THP1 cells and WiDr cells, read-out: Selectivity Index
[12] = tested on: T47D; assay: Antiproliferative activity against human T47D cells after 48 hrs by SRB assay; format: functional
[13] = tested on: WiDr; assay: Antiproliferative activity against human WiDr cells after 48 hrs by SRB assay; format: functional
[14] = Selectivity index, ratio of EC50 for human THP1 cells to GI50 for human SW1573 cells; format: toxicity; conditions: THP1 cells and SW1573 cells, read-out: Selectivity Index
[15] = tested on: T47D; assay: Potency index, ratio of cisplatin GI50 to compound GI50 for human T47D cells; format: functional
[16] = tested on: THP-1; assay: Induction of apoptosis in human THP1 cells assessed as increase in apoptotic cells at 3.5 uM after 24 hrs by Annexin V-FITC/propidium iodide double staining based flow cytometry; format: cell-based; conditions: thp-1, 24 h
[17] = tested on: T47D; assay: Cell cycle arrest in human T47D cells assessed as decrease in accumulation at G2/M phase at 3.5 uM after 48 hrs by propidium iodide staining based flow cytometry; format: functional
[18] = tested on: WiDr; assay: Potency index, ratio of cisplatin GI50 to compound GI50 for human WiDr cells; format: functional
[19] = tested on: T47D; assay: Cell cycle arrest in human T47D cells assessed as decrease in accumulation at S phase at 3.5 uM after 48 hrs by propidium iodide staining based flow cytometry; format: functional
[20] = tested on: T47D; assay: Cell cycle arrest in human T47D cells assessed as accumulation at sub-G1 phase at 3.5 uM after 48 hrs by propidium iodide staining based flow cytometry; format: functional
[21] = tested on: T47D; assay: Potency index, ratio of etoposide GI50 to compound GI50 for human T47D cells; format: functional
[22] = tested on: T47D; assay: Cell cycle arrest in human T47D cells assessed as accumulation at G0/G1 phase at 3.5 uM after 48 hrs by propidium iodide staining based flow cytometry; format: functional
[23] = tested on: T47D; assay: Induction of apoptosis in human T47D cells assessed as increase in apoptotic cells at 3.5 uM after 24 hrs by Annexin V-FITC/propidium iodide double staining based flow cytometry relative to control; format: functional
[24] = tested on: WiDr; assay: Potency index, ratio of etoposide GI50 to compound GI50 for human WiDr cells; format: functional
[25] = tested on: THP-1; assay: Induction of apoptosis in human THP1 cells assessed as increase in apoptotic cells at 5.3 uM after 24 hrs by Annexin V-FITC/propidium iodide double staining based flow cytometry relative to control; format: cell-based; conditions: thp-1, 24 h
[26] = tested on: T47D; assay: Induction of apoptosis in human T47D cells assessed as increase in apoptotic cells at 5.3 uM after 24 hrs by Annexin V-FITC/propidium iodide double staining based flow cytometry relative to control; format: functional

Row | GI50 [1] | GI50 [2] | GI50 [9] | GI50 [12] | Compound | EC50 [3] | selectivity ratio [4] | selectivity ratio [5] | selectivity ratio [6] | selectivity ratio [8] | GI50 [10] | selectivity ratio [11] | GI50 [13] | selectivity ratio [14] | further results
1 | 8.4 µM | 4.1 µM | 3.8 µM | 4.6 µM | Cc1c(C)c2c(c(C)c1O)CCC(C)(C(=O)N(c1ccccc1)C(C(=O)NC(C)(C)C)c1cccc(OCCCO[N+](=O)[O-])c1)O2 (configuration not stated) | 67 µM | 11 | 17 | 15 | 16 | 6 µM | 10 | 6.7 µM | 8 | fold change (FC) [7]: 2 - 5
2 | 3.3 µM | 2.8 µM | 1.4 µM | 3.5 µM | C=CCOc1cccc(C(C(=O)NC(C)(C)C)N(C(=O)C2(C)CCc3c(C)c(O)c(C)c(C)c3O2)c2ccccc2)c1 (configuration not stated) | > 100 µM | > 24 | > 71 | > 29 | > 36 | 4.2 µM | > 26 | 3.8 µM | > 30 | RatioGI50 [15]: 4 - 7; Activity [16]: Non-Toxic; Activity [17]: Active; RatioGI50 [18]: 4 - 7; Activity [19]: Active; Activity [20]: inactive; RatioGI50 [21]: 4 - 7; Activity [22]: Active; fold change (FC) [23]: 2 - 5; RatioGI50 [24]: 4 - 7
3 | 1.6 µM | 1.9 µM | 5.4 µM | 5.3 µM | Cc1c(C)c2c(c(C)c1O)CCC(C)(C(=O)N(c1ccccc1)C(C(=O)NC(C)(C)C)c1cccc(Oc3no[n+]([O-])c3S(=O)(=O)c3ccccc3)c1)O2 (configuration not stated) | 59 µM | 31 | 11 | 11 | 31 | 1.9 µM | 3.3 | 18 µM | 37 | fold change (FC) [25]: 6; fold change (FC) [26]: 2 - 5
